ChEMBL document CHEMBL3046948, “Synthesis and SAR investigation of natural phenylpropene-derived methoxylated cinnamaldehydes and their novel Schiff bases as potent antimicrobial and antioxidant agents” (2013)
≈ marks a conversion by molar mass, not a printed value. Calls of active or inactive are those of the source. No cut-off for these calls is given here.

Legend:
Format in all cases: functional
Aspergillus sydowii = experiment: Antimicrobial activity against Aspergillus sydowii MTCC 4335 assessed as growth inhibition after 5 days by broth microdilution method
Aspergillus parasiticus = experiment: Antimicrobial activity against Aspergillus parasiticus MTCC 2797 assessed as growth inhibition after 5 days by broth microdilution method
Aspergillus niger = experiment: Antimicrobial activity against Aspergillus niger MTCC 404 assessed as growth inhibition after 5 days by broth microdilution method
Pichia kudriavzevii = experiment: Antimicrobial activity against Pichia kudriavzevii MTCC 231 assessed as growth inhibition after 24 hr by broth microdilution method
Candida albicans = experiment: Antimicrobial activity against Candida albicans MTCC 3017 assessed as growth inhibition after 24 hr by broth microdilution method
Enterobacter cloacae = experiment: Antimicrobial activity against Enterobacter cloacae MTCC 509 assessed as growth inhibition after 24 hr by broth microdilution method
Pseudomonas aeruginosa = experiment: Antimicrobial activity against Pseudomonas aeruginosa MTCC 424 assessed as growth inhibition after 24 hr by broth microdilution method
Klebsiella pneumoniae = experiment: Antimicrobial activity against Klebsiella pneumoniae MTCC 109 assessed as growth inhibition after 24 hr by broth microdilution method
Escherichia coli = experiment: Antimicrobial activity against Escherichia coli MTCC 43 assessed as growth inhibition after 24 hr by broth microdilution method
Burkholderia cepacia = experiment: Antimicrobial activity against Burkholderia cepacia MTCC 438 assessed as growth inhibition after 24 hr by broth microdilution method
Micrococcus luteus = experiment: Antimicrobial activity against Micrococcus luteus MTCC 2470 assessed as growth inhibition after 24 hr by broth microdilution method
Bacillus subtilis = experiment: Antimicrobial activity against Bacillus subtilis MTCC 121 assessed as growth inhibition after 24 hr by broth microdilution method
Staphylococcus aureus = experiment: Antimicrobial activity against Staphylococcus aureus MTCC 3160 assessed as growth inhibition after 24 hr by broth microdilution method
[1] = system: Radical scavenging activity; experiment: Antioxidant activity assessed as inhibition of DPPH radical formation at 2 mg/ml after 30 min by spectrophotometric analysis
Trichophyton rubrum = experiment: Antimicrobial activity against Trichophyton rubrum MTCC 296 assessed as growth inhibition after 5 days by broth microdilution method

Row | Compound | MIC (Aspergillus sydowii; MTCC 4335, 120 h) | MIC (Aspergillus parasiticus; MTCC 2797, 120 h) | MIC (Aspergillus niger) | MIC (Enterobacter cloacae) | MIC (Pseudomonas aeruginosa) | MIC (Klebsiella pneumoniae) | MIC (Escherichia coli) | MIC (Burkholderia cepacia) | inhibition [1] | MIC (Aspergillus sydowii) | MIC (Aspergillus parasiticus) | MIC (Pichia kudriavzevii; MTCC 231, 24 h) | MIC (Candida albicans; MTCC 3017, 24 h) | MIC (Enterobacter cloacae; MTCC 509, 24 h) | MIC (Burkholderia cepacia; MTCC 438, 24 h) | MIC (Micrococcus luteus; MTCC 2470, 24 h) | MIC (Bacillus subtilis; MTCC 121, 24 h) | MIC (Staphylococcus aureus; MTCC 3160, 24 h) | MIC (Trichophyton rubrum; MTCC 296, 120 h) | MIC (Aspergillus niger; MTCC 404, 120 h) | other results
1 | COc1ccc(/N=C/C=C/c2ccc3c(c2)OCO3)cc1OC | 3210 µM (≈ 999 µg/mL) | 1600 µM (≈ 498 µg/mL) | inactive | inactive | inactive | inactive | inactive | inactive | 15.4% | – | – | – | – | – | – | – | – | – | – | – | MIC (Pichia kudriavzevii): inactive; MIC (Candida albicans): inactive; MIC (Micrococcus luteus): inactive; MIC (Bacillus subtilis): inactive; MIC (Staphylococcus aureus): inactive; MIC (Trichophyton rubrum): inactive
2 | NC(=S)N/N=C/C=C/c1ccc2c(c1)OCO2 | – | – | inactive | inactive | inactive | inactive | inactive | inactive | 10.7% | inactive | inactive | – | – | – | – | – | – | – | – | – | MIC (Pichia kudriavzevii): inactive; MIC (Candida albicans): inactive; MIC (Micrococcus luteus): inactive; MIC (Bacillus subtilis): inactive; MIC (Staphylococcus aureus): inactive; MIC (Trichophyton rubrum): inactive
3 | Cc1ccc2nc(/N=C/C=C/c3ccc4c(c3)OCO4)sc2c1 | – | – | inactive | – | inactive | inactive | inactive | – | 3.19% | inactive | inactive | 770 µM (≈ 248 µg/mL) | 770 µM (≈ 248 µg/mL) | 770 µM (≈ 248 µg/mL) | 770 µM (≈ 248 µg/mL) | 770 µM (≈ 248 µg/mL) | 770 µM (≈ 248 µg/mL) | 380 µM (≈ 123 µg/mL) | 770 µM (≈ 248 µg/mL) | – | –
4 | Cc1cc(C(C)(C)C)c(O)c(C(C)(C)C)c1 | – | – | – | – | – | – | – | – | 91.6% | – | – | – | – | – | – | – | – | – | – | – | –
5 | CCOc1ccc2nc(/N=C/C=C/c3ccc4c(c3)OCO4)sc2c1 | 710 µM (≈ 250 µg/mL) | 710 µM (≈ 250 µg/mL) | inactive | inactive | inactive | inactive | inactive | – | 0.24% | – | – | 1420 µM (≈ 500 µg/mL) | 1420 µM (≈ 500 µg/mL) | – | 1420 µM (≈ 500 µg/mL) | 710 µM (≈ 250 µg/mL) | 1420 µM (≈ 500 µg/mL) | 710 µM (≈ 250 µg/mL) | 1420 µM (≈ 500 µg/mL) | – | –
6 | C(=C\c1nc2ccccc2[nH]1)/c1ccc2c(c1)OCO2 | 1900 µM (≈ 502 µg/mL) | 1900 µM (≈ 502 µg/mL) | – | – | – | – | – | – | 32.6% | – | – | 470 µM (≈ 124 µg/mL) | 470 µM (≈ 124 µg/mL) | 950 µM (≈ 251 µg/mL) | 470 µM (≈ 124 µg/mL) | 1900 µM (≈ 502 µg/mL) | 3780 µM (≈ 999 µg/mL) | 1900 µM (≈ 502 µg/mL) | 470 µM (≈ 124 µg/mL) | 950 µM (≈ 251 µg/mL) | MIC (Pseudomonas aeruginosa; MTCC 424, 24 h): 10 µM (≈ 2.64 µg/mL); MIC (Klebsiella pneumoniae; MTCC 109, 24 h): 1900 µM (≈ 502 µg/mL); MIC (Escherichia coli; MTCC 43, 24 h): 1900 µM (≈ 502 µg/mL)
7 | C(=C\c1ccc2c(c1)OCO2)/C=N/c1nccs1 | 1930 µM (≈ 499 µg/mL) | 3870 µM (≈ 1000 µg/mL) | – | – | inactive | – | – | – | 3.91% | – | – | 970 µM (≈ 251 µg/mL) | 970 µM (≈ 251 µg/mL) | 480 µM (≈ 124 µg/mL) | 1930 µM (≈ 499 µg/mL) | 970 µM (≈ 251 µg/mL) | 120 µM (≈ 31 µg/mL) | 480 µM (≈ 124 µg/mL) | 970 µM (≈ 251 µg/mL) | 3870 µM (≈ 1000 µg/mL) | MIC (Klebsiella pneumoniae; MTCC 109, 24 h): 970 µM (≈ 251 µg/mL); MIC (Escherichia coli; MTCC 43, 24 h): 970 µM (≈ 251 µg/mL)
8 | CC(=O)c1ccc(/N=C/C=C/c2ccc3c(c2)OCO3)cc1 | 850 µM (≈ 249 µg/mL) | 1700 µM (≈ 499 µg/mL) | – | inactive | inactive | inactive | inactive | – | 4.49% | – | – | 1700 µM (≈ 499 µg/mL) | 1700 µM (≈ 499 µg/mL) | – | 1700 µM (≈ 499 µg/mL) | 850 µM (≈ 249 µg/mL) | 850 µM (≈ 249 µg/mL) | 850 µM (≈ 249 µg/mL) | 1700 µM (≈ 499 µg/mL) | 1700 µM (≈ 499 µg/mL) | –
9 | Clc1ccc2nc(/N=C/C=C/c3ccc4c(c3)OCO4)sc2c1 | – | – | inactive | inactive | inactive | inactive | inactive | – | 80.7% | inactive | inactive | 730 µM (≈ 250 µg/mL) | 730 µM (≈ 250 µg/mL) | – | 730 µM (≈ 250 µg/mL) | 730 µM (≈ 250 µg/mL) | 730 µM (≈ 250 µg/mL) | 730 µM (≈ 250 µg/mL) | 730 µM (≈ 250 µg/mL) | – | –
10 | NC(=O)N/N=C/C=C/c1ccc2c(c1)OCO2 | – | – | inactive | inactive | inactive | inactive | inactive | inactive | 2.37% | inactive | inactive | 8570 µM (≈ 2000 µg/mL) | 8570 µM (≈ 2000 µg/mL) | – | – | – | – | – | 8570 µM (≈ 2000 µg/mL) | – | MIC (Micrococcus luteus): inactive; MIC (Bacillus subtilis): inactive; MIC (Staphylococcus aureus): inactive
11 | C(=C\c1ccc2c(c1)OCO2)/C=N/c1ccccc1 | 1990 µM (≈ 500 µg/mL) | 1990 µM (≈ 500 µg/mL) | – | – | – | – | – | – | 25.8% | – | – | 490 µM (≈ 123 µg/mL) | 990 µM (≈ 249 µg/mL) | 990 µM (≈ 249 µg/mL) | 490 µM (≈ 123 µg/mL) | 990 µM (≈ 249 µg/mL) | 1990 µM (≈ 500 µg/mL) | 1990 µM (≈ 500 µg/mL) | 990 µM (≈ 249 µg/mL) | 990 µM (≈ 249 µg/mL) | MIC (Pseudomonas aeruginosa; MTCC 424, 24 h): 250 µM (≈ 62.8 µg/mL); MIC (Klebsiella pneumoniae; MTCC 109, 24 h): 990 µM (≈ 249 µg/mL); MIC (Escherichia coli; MTCC 43, 24 h): 1990 µM (≈ 500 µg/mL)
12 | O=Cc1ccc2c(c1)OCO2 [PIPERONAL] | 3330 µM (≈ 500 µg/mL) | 3330 µM (≈ 500 µg/mL) | – | – | – | – | – | inactive | – | – | – | 830 µM (≈ 125 µg/mL) | 830 µM (≈ 125 µg/mL) | 3330 µM (≈ 500 µg/mL) | – | 3330 µM (≈ 500 µg/mL) | 6660 µM (≈ 1000 µg/mL) | 3330 µM (≈ 500 µg/mL) | 830 µM (≈ 125 µg/mL) | 3330 µM (≈ 500 µg/mL) | MIC (Pseudomonas aeruginosa; MTCC 424, 24 h): 830 µM (≈ 125 µg/mL); MIC (Klebsiella pneumoniae; MTCC 109, 24 h): 3330 µM (≈ 500 µg/mL); MIC (Escherichia coli; MTCC 43, 24 h): 3330 µM (≈ 500 µg/mL)
13 | C(=C\c1ccc2c(c1)OCO2)/C=N/c1nc2ccccc2s1 | – | – | inactive | – | – | – | – | – | 3.55% | inactive | inactive | 1620 µM (≈ 500 µg/mL) | 810 µM (≈ 250 µg/mL) | 810 µM (≈ 250 µg/mL) | 810 µM (≈ 250 µg/mL) | 200 µM (≈ 61.7 µg/mL) | 400 µM (≈ 123 µg/mL) | 200 µM (≈ 61.7 µg/mL) | 810 µM (≈ 250 µg/mL) | – | MIC (Pseudomonas aeruginosa; MTCC 424, 24 h): 810 µM (≈ 250 µg/mL); MIC (Klebsiella pneumoniae; MTCC 109, 24 h): 810 µM (≈ 250 µg/mL); MIC (Escherichia coli; MTCC 43, 24 h): 810 µM (≈ 250 µg/mL)
14 | C/C=C/c1ccc(OC)cc1 [ANETHOLE] | – | – | inactive | inactive | inactive | inactive | inactive | inactive | – | inactive | inactive | 6740 µM (≈ 999 µg/mL) | 6740 µM (≈ 999 µg/mL) | – | – | – | – | – | – | – | MIC (Micrococcus luteus): inactive; MIC (Bacillus subtilis): inactive; MIC (Staphylococcus aureus): inactive; MIC (Trichophyton rubrum): inactive
